# Tested on: inflammatory ILC2s (ST2-KLRG1+ ILCs; iILC2s)
# Assay: culture of sort-purified inflammatory ILC2s (iILC2s) with IL-33 or IL-25 with or without CGRP, qPCR
# Format: cell-based, mouse
# Conditions: IL-33 or IL-25 with vs without CGRP, 6 hours
# Experimental: Isolation of lung cells for fluorescence-activated cell sorting. Mice were euthanized and perfused with 8 ml cold PBS via the right heart ventricle. Lung lobes were removed from the chest cavity and transferred into gentleMACS C tubes containing Buffer S and enzymes A and D from the lung dissociation kit (Cat #130-095-927; Miltenyi Biotec). After manual dissociation of the tissue by running program lung_01 of the automated tissue dissociator (gentleMACS; Miltenyi Biotec), and digestion at 37° C. for 25 min on a rotator, the tissue pieces were further dissociated by running program lung_02 of the automated tissue dissociator. Subsequently, the single-cell suspension was passed through a 70 um cell strainer and washed with DPBS (Cat #14190-144; Thermo Fisher Scientific) containing 0.5% bovine serum albumin (Cat #BP1600-1; Fisher Scientific) and 2 mM EDTA. After incubation of the cells with CD90.2 MicroBeads (Cat #130-049-101; Miltenyi Biotec) on ice for 17 min, cells were washed and transferred onto LS columns (Cat #130-042-401; Miltenyi Biotec) to enrich for CD90.2-positive cells by positive selection. […] Cells were purified by fluorescence-activated cell sorting using a BD FACS Aria IIIu flow cytometer with 3 lasers (405 nm, 488 nm, 640 nm) or 4 lasers (405 nm, 488 nm, 561 nm and 640 nm) (BD Biosciences). […]
substance,measurement,value
"CGRP: neuropeptide calcitonin gene-related peptide (encoded by Calca), ligand of the Ramp1/Calcrl receptor; given at 100 nM in vitro, 6.65 ug nasally",Il5 and Il13 expression in iILC2s,no differences
